From patent publication US20250186541A1, “DLL3 TARGETING PEPTIDES AND CONSTRUCTS THEREOF” (MARIANA ONCOLOGY INC., priority 2023, published 2025)
Numbered stars: 1 amine (or outer) side, 2 acyl side, 3 side chain; on linkers, the order of the positions; unused ones are H or OH. Bridge positions count the residues as written; N and C are the ends. Square brackets hold non-standard residues; d marks the D form. Peptide text beside a SMILES is read from it. * marks the point of attachment. ξ: configuration not given here. Ala(piperidin-4-yl) = O=C([C@H](CC1CCN([*:3])CC1)N[*:1])[*:2]; DOTA = O=C(O)CN1CCN(CC(=O)O)CCN(CC(=O)*)CCN(CC(=O)O)CC1; Phe(4-COOH) = N[C@@H](Cc1ccc(C(=O)O)cc1)C(=O)O; Phe(4-CH2NH2) = NCc1ccc(C[C@H](N)C(=O)O)cc1; Bip = N[C@@H](Cc1ccc(-c2ccccc2)cc1)C(=O)O; 1Nal = N[C@@H](Cc1cccc2ccccc12)C(=O)O; 2Nal = N[C@@H](Cc1ccc2ccccc2c1)C(=O)O; Ala(4-THP) = N[C@@H](CC1CCOCC1)C(=O)O; Phe(2-Me) = Cc1ccccc1C[C@H](N)C(=O)O; tBuAla = CC(C)(C)C[C@H](N)C(=O)O; αMeD = C[C@](N)(CC(=O)O)C(=O)O; AllylGly = C=CC[C@H](N)C(=O)O; Chg = N[C@H](C(=O)O)C1CCCCC1; αMeP = C[C@@]1(C(=O)O)CCCN1; CH2 = C([*:1])[*:2]; Ahx = NCCCCCC(=O)O; ξC = NC(CS)C(=O)O

biological target: T1, human DLL3 (Homo sapiens, UniProt Q9NYJ7); experiment: Affinity determination by Surface Plasmon Resonance (SPR), Biacore, 1:1 binding model; details: biotinylated human DLL3 on streptavidin chip, 25° C.; NB = nonbinding
T1 construct: biotin (biotinylated)
T1 sequence (Q9NYJ7 27-618): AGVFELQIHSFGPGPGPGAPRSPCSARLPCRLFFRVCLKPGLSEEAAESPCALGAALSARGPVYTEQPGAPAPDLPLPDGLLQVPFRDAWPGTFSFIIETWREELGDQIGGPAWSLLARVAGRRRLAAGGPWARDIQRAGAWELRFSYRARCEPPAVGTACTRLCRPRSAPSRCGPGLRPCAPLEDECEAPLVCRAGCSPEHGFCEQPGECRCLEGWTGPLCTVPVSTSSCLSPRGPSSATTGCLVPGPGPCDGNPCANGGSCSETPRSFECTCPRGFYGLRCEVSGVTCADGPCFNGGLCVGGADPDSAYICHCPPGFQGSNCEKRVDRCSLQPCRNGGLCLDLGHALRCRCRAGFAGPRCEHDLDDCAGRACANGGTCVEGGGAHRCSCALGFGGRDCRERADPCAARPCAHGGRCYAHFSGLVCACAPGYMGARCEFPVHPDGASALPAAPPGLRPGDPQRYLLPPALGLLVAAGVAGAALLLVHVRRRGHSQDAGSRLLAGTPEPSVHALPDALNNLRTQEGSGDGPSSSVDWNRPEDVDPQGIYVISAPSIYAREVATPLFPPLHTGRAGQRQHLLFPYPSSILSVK
Summary of the method: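 SPR with biotinylated human DLL3 captured on a streptavidin chip, with a reference surface subtracted. Samples were injected at several concentrations at 100 μL/min in phosphate buffer with 137 mM NaCl, 2.7 mM KCl, 0.05% P20 and 2% DMSO. Kinetic and affinity constants came from a 1:1 binding fit.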

| Structure (SMILES) | Kd [nM] |
| --- | --- |
| CSCC[C@H](NC(=O)CCCCCNC(=O)CN1CCN(CC(=O)O)CCN(CC(=O)O)CCN(CC(=O)O)CC1)C(=O)N[C@@H](CO)C(=O)N[C@@H](CC(=O)O)C(=O)N[C@H]1CSSC[C@@H](C(=O)N2CCC[C@H]2C(=O)N[C@@H](Cc2ccccc2)C(=O)N[C@@H](CC(=O)O)C(N)=O)NC(=O)[C@H](CC(N)=O)NC(=O)[C@H](Cc2c[nH]c3ccccc23)NC(=O)[C@H](CCC(N)=O)NC(=O)[C@H](CC(C)C)NC(=O)[C@H](Cc2c[nH]c3ccccc23)NC1=O [Cpd #7, DOTA-Ahx-M-S-D-C(3)-W-L-Q-W-N-C(3)-P-F-D-CONH2] ({DOTA-Ahx}-MSDCWLQWNCPFD-NH2; disulfide 4-10) | 14 |
| CC(=O)N[C@H](C(=O)N[C@@H](CO)C(=O)N[C@@H](CC(=O)O)C(=O)N[C@H]1CSSC[C@@H](C(=O)N2CCC[C@@]2(C)C(=O)N[C@@H](Cc2ccccc2C)C(=O)N[C@@H](CC(=O)O)C(=O)N[C@H](CCCCNC(=O)CN2CCN(CC(=O)O)CCN(CC(=O)O)CCN(CC(=O)O)CC2)C(N)=O)NC(=O)[C@H](CC(N)=O)NC(=O)[C@H](Cc2c[nH]c3ccccc23)NC(=O)[C@H](CCC(N)=O)NC(=O)[C@H](CC(C)C)NC(=O)[C@H](Cc2cccc3ccccc23)NC1=O)C1CCCCC1 [compound 119, Ac-(Chg)-S-D-C(3)-(1Nal)-L-Q-W-N-C(3)-(aMe-P)-(2Me-Phe)-D-D-Lys(DOTA)-CONH2] (Ac-[Chg]SDC[1Nal]LQWNC[αMeP][Phe(2-Me)]D[dK](DOTA)-NH2; disulfide 4-10) | 0.65 |
| CC(C)C[C@@H]1NC(=O)[C@H](Cc2c[nH]c3ccccc23)NC(=O)[C@@H](NC(=O)[C@H](CC(=O)O)NC(=O)[C@H](CO)NC(=O)CCCCCNC(=O)CN2CCN(CC(=O)O)CCN(CC(=O)O)CCN(CC(=O)O)CC2)CSSC[C@@H](C(=O)N2CCC[C@H]2C(=O)N[C@@H](Cc2ccc(C(=O)O)cc2)C(=O)N[C@@H](CC(=O)O)C(N)=O)NC(=O)[C@H](CC(N)=O)NC(=O)[C@H](Cc2c[nH]c3ccccc23)NC(=O)[C@H](CCC(N)=O)NC1=O [compound 35, DOTA-Ahx-S-D-C(3)-W-L-Q-W-N-C(3)-P-(4COOH-F)-D-CONH2] ({DOTA-Ahx}-SDCWLQWNCP[Phe(4-COOH)]D-NH2; disulfide 3-9) | > 100 |
| CC(=O)N[C@H](C(=O)N[C@@H](CO)C(=O)N[C@@H](CC(=O)O)C(=O)N[C@H]1CSSC[C@@H](C(=O)N2CCC[C@H]2C(=O)N[C@@H](Cc2ccccc2)C(=O)N[C@@H](CC(=O)O)C(N)=O)NC(=O)[C@H](CC(N)=O)NC(=O)[C@H](Cc2c[nH]c3ccccc23)NC(=O)[C@H](CCC(N)=O)NC(=O)[C@H](CC(C)C)NC(=O)[C@H](CCCCNC(=O)CN2CCN(CC(=O)O)CCN(CC(=O)O)CCN(CC(=O)O)CC2)NC1=O)C1CCCCC1 [compound 97, Ac-(Chg)-S-D-C(3)-[L-Lys(DOTA)]-L-Q-W-N-C(3)-P-F-D-CONH2] (Ac-[Chg]SDCK(DOTA)LQWNCPFD-NH2; disulfide 4-10) | > 100 |
| CSCC[C@H](NC(C)=O)C(=O)N[C@@H](CO)C(=O)N[C@@H](CC(=O)O)C(=O)N[C@H]1CSSC[C@@H](C(=O)N2CCC[C@H]2C(=O)N[C@@H](Cc2ccccc2)C(=O)N[C@@H](CC(=O)O)C(=O)N[C@H](CCCCNC(=O)CN2CCN(CC(=O)O)CCN(CC(=O)O)CCN(CC(=O)O)CC2)C(N)=O)NC(=O)[C@H](CC(N)=O)NC(=O)[C@H](Cc2ccc(-c3ccccc3)cc2)NC(=O)[C@H](CCC(N)=O)NC(=O)[C@H](CC(C)C)NC(=O)[C@H](Cc2c[nH]c3ccccc23)NC1=O [compound 60, Ac-M-S-D-C(3)-W-L-Q-(BIP)-N-C(3)-P-F-D-D-Lys(DOTA)-CONH2] (Ac-MSDCWLQ[Bip]NCPFD[dK](DOTA)-NH2; disulfide 4-10) | > 300 |
| CC(=O)N[C@H](C(=O)N[C@@H](CO)C(=O)N[C@@H](CC(=O)O)C(=O)N[C@H]1CSSC[C@@H](C(=O)N2CCC[C@@]2(C)C(=O)N[C@@H](Cc2ccccc2)C(=O)N[C@@H](CC(=O)O)C(=O)N[C@H](CCCCNC(=O)CN2CCN(CC(=O)O)CCN(CC(=O)O)CCN(CC(=O)O)CC2)C(N)=O)NC(=O)[C@H](CC(N)=O)NC(=O)[C@H](Cc2c[nH]c3ccccc23)NC(=O)[C@H](CCC(N)=O)NC(=O)[C@H](CC(C)C)NC(=O)[C@H](Cc2cccc3ccccc23)NC1=O)C1CCCCC1 [compound 95, Ac-(Chg)-S-D-C(3)-(1Nal)-L-Q-W-N-C(3)-(aMe-P)-F-D-D-Lys(DOTA)-CONH2] (Ac-[Chg]SDC[1Nal]LQWNC[αMeP]FD[dK](DOTA)-NH2; disulfide 4-10) | 0.29 |
| CC(=O)N[C@@H](CO)C(=O)N[C@@H](CC(=O)O)C(=O)N[C@H]1CSSC[C@@H](C(=O)N2CCC[C@H]2C(=O)N[C@@H](Cc2ccccc2)C(=O)N[C@@H](CC(=O)O)C(N)=O)NC(=O)[C@H](CC(N)=O)NC(=O)[C@H](Cc2c[nH]c3ccccc23)NC(=O)[C@H](CCC(N)=O)NC(=O)[C@H](CC(C)C)NC(=O)[C@H](Cc2c[nH]c3ccccc23)NC1=O [compound 5, Ac-S-D-C(3)-W-L-Q-W-N-C(3)-P-F-D-CONH2] (Ac-SDCWLQWNCPFD-NH2; disulfide 3-9) | > 100 |

Other lines, results leading:

| Kd [nM] | Structure (SMILES) |
| --- | --- |
| 0.21 | CC(=O)N[C@@H](CC1CCNCC1)C(=O)N[C@@H](CO)C(=O)N[C@@H](CC(=O)O)C(=O)N[C@H]1C/C=C/C[C@@H](C(=O)N2CCC[C@@]2(C)C(=O)N[C@@H](Cc2ccccc2)C(=O)N[C@@H](CC(=O)O)C(N)=O)NC(=O)[C@H](CC(N)=O)NC(=O)[C@H](Cc2ccc3ccccc3c2)NC(=O)[C@H](Cc2ccc(CNC(=O)CN3CCN(CC(=O)O)CCN(CC(=O)O)CCN(CC(=O)O)CC3)cc2)NC(=O)[C@H](CC(C)(C)C)NC(=O)[C@H](Cc2cccc3ccccc23)NC1=O [compound 199, Ac-(D-Ala)-S-D-AllyG(4)-(1Nal)-(t-Bu-Ala)-[PAF(DOTA)]-(2Nal)-N-AllyG(4)-(aMe-P)-F-D-CONH2] (Ac-[Ala(piperidin-4-yl)]SD[AllylGly][1Nal][tBuAla][Phe(4-CH2NH2)](DOTA)[2Nal]N[AllylGly][αMeP]FD-NH2; staple (E) 4-10) |
| > 30 | CC(=O)N[C@H](C(=O)N[C@@H](CO)C(=O)N[C@@H](CC(=O)O)C(=O)NC1CSCSC[C@@H](C(=O)N2CCC[C@@]2(C)C(=O)N[C@@H](Cc2ccccc2)C(=O)N[C@@H](CC(=O)O)C(=O)N[C@H](CCCCNC(=O)CN2CCN(CC(=O)O)CCN(CC(=O)O)CCN(CC(=O)O)CC2)C(N)=O)NC(=O)[C@H](CC(N)=O)NC(=O)[C@H](Cc2c[nH]c3ccccc23)NC(=O)[C@H](CCC(N)=O)NC(=O)[C@H](CC(C)C)NC(=O)[C@H](Cc2cccc3ccccc23)NC1=O)C1CCCCC1 (stereo partly drawn) [compound 121, Ac-(Chg)-S-D-[D-Cys(1)]-(1Nal)-L-Q-W-N-C(1)-(aMe-P)-F-D-D-Lys(DOTA)-CONH2] (Ac-[Chg]SD[ξC][1Nal]LQWNC[αMeP]FD[dK](DOTA)-NH2; linker 4-10 via CH2) |
| 0.21 | CC(=O)N[C@H](C(=O)N[C@@H](CO)C(=O)N[C@@H](CC(=O)O)C(=O)N[C@H]1CSSC[C@@H](C(=O)N2CCC[C@@]2(C)C(=O)N[C@@H](Cc2ccccc2)C(=O)N[C@@H](CC(=O)O)C(=O)N[C@H](CCCCNC(=O)CN2CCN(CC(=O)O)CCN(CC(=O)O)CCN(CC(=O)O)CC2)C(N)=O)NC(=O)[C@H](CC(N)=O)NC(=O)[C@H](Cc2c[nH]c3ccccc23)NC(=O)[C@H](CC2CCOCC2)NC(=O)[C@H](CC(C)C)NC(=O)[C@H](Cc2cccc3ccccc23)NC1=O)C1CCCCC1 [compound 132, Ac-(Chg)-S-D-C(3)-(1Nal)-L-(THPA)-W-N-C(3)-(aMe-P)-F-D-[D-Lys(DOTA)]-NH2] (Ac-[Chg]SDC[1Nal]L[Ala(4-THP)]WNC[αMeP]FD[dK](DOTA)-NH2; disulfide 4-10) |
| 3.52 | CC(=O)N[C@H](C(=O)N[C@@H](CO)C(=O)N[C@@H](CC(=O)O)C(=O)N[C@H]1CSSC[C@@H](C(=O)N2CCC[C@@]2(C)C(=O)N[C@@H](Cc2ccccc2)C(=O)N[C@@H](CC(=O)O)C(=O)N[C@H](CCCCNC(=O)CN2CCN(CC(=O)O)CCN(CC(=O)O)CCN(CC(=O)O)CC2)C(N)=O)NC(=O)[C@H](CC2CCOCC2)NC(=O)[C@H](Cc2c[nH]c3ccccc23)NC(=O)[C@H](CCC(N)=O)NC(=O)[C@H](CC(C)C)NC(=O)[C@H](Cc2cccc3ccccc23)NC1=O)C1CCCCC1 [compound 134, Ac-(Chg)-S-D-C(3)-(1Nal)-L-Q-W-(THPA)-C(3)-(aMe-P)-F-D-[D-Lys(DOTA)]-NH2] (Ac-[Chg]SDC[1Nal]LQW[Ala(4-THP)]C[αMeP]FD[dK](DOTA)-NH2; disulfide 4-10) |
| 1.66 | C[C@@H](NC(=O)CN1CCN(CC(=O)O)CCN(CC(=O)O)CCN(CC(=O)O)CC1)C(=O)N[C@@H](CO)C(=O)N[C@@](C)(CC(=O)O)C(=O)N[C@H]1C/C=C/C[C@@H](C(=O)N2CCC[C@@]2(C)C(=O)N[C@@H](Cc2ccccc2)C(=O)N[C@@H](CC(=O)O)C(N)=O)NC(=O)[C@H](CC(N)=O)NC(=O)[C@H](Cc2ccc3ccccc3c2)NC(=O)[C@H](CC2CCNCC2)NC(=O)[C@H](CC(C)(C)C)NC(=O)[C@H](Cc2cccc3ccccc23)NC1=O [compound 197, DOTA-(D-Ala)-S-(aMe-Asp)-AllyG(4)-(1Nal)-(t-Bu-Ala)-[3-(4-piperidinyl)-Ala]-(2Nal)-N-AllyG(4)-(aMe-P)-F-D-CONH2] ({DOTA}-[dA]S[αMeD][AllylGly][1Nal][tBuAla][Ala(piperidin-4-yl)][2Nal]N[AllylGly][αMeP]FD-NH2; staple (E) 4-10) |
